Test [1] concerns STAT5. Kind of test: STAT5-dependent luciferase reporter in T47D cells (NCAM2-luc/T47D), prolactin-stimulated. Format: cell-based. On the procedure:
(§1) FIG. 1A is a bar chart wherein reporter cell lines were treated with the indicated doses of fludrocortisone for two hours, after which cytokines were added to activate the appropriate transcription factor. Luciferase activity was quantified by luminometry six hours later. FIG. 1B is a bar chart wherein T47D cells were transfected with one of two luciferase constructs regulated by a STAT5-dependent promoter (NCAM-luc or B-luc) together with a normalizing control, and the effect of fludrocortisone on prolactin-induced gene expression was determined. Jak inhibitor 1 (JAKinhib; 1 μM) was used as a positive control. Error bars represent mean±SD for two independent experiments. FIG. 1C is a series of bar charts wherein the indicated breast cancer cell lines were pre-treated with vehicle (dimethylsulfoxide (DMSO)) or fludrocortisone (1 μM) for 1 hour, then left untreated or stimulated with prolactin (100 ng/ml) to induce STAT5 activation. RNA was harvested 1.5 hours later, and expression of the indicated STAT5 target genes was measured using quantitative reverse transcription polymerase chain reaction (RT-PCR) and normalized to the expression of 18s. Error bars represent mean±SD for triplicates.
FIG. 2A-FIG. 2E is a series of bar graphs showing that the endogenous mineralocorticoid aldosterone inhibits STAT5 transcriptional function. FIG. 2A is a bar chart wherein T47D cells were transfected with an MCR-dependent luciferase reporter and a normalizing control, and normalized luciferase activity was determined after the indicated treatment. FIG. 2B is a bar chart wherein T47D cells transfected with an MCR-dependent luciferase reporter and a normalizing control were treated with the indicated dose of aldosterone, after which luciferase activity was determined. FIG. 2C is a bar chart wherein T47D-luc cells were pre-treated with the indicated concentration of aldosterone for 1 hour, then stimulated with prolactin (100 ng/ml) for 6 hours, after which luciferase activity was determined. […] RNA was harvested 1.5 hours later, and expression of STAT5 target genes was measured using quantitative RT-PCR and normalized to the expression of 18s RNA. […] Luciferase activity was quantified by luminometry six hours following prolactin stimulation. […]
T47D, ZR75 (American Type Culture Collection, Manassas Va.), and MDA-MB-468, were maintained in DMEM containing 10% FBS. […] STAT1, STAT3, STAT5 and NF-κB-dependent luciferase activities were measured in STAT-luc/2FTGH, STAT-luc/U3A, NCAM2-luc/T47D and NF-κB-luc/293 cells, respectively (Nelson et al., 2008 Blood 112, 5095-5102). Luciferase activity was quantified using the Bright-Glo Luciferase assay system (Promega, Madison, Wis.). […]

Test [2] has as its system STAT5 target genes AREG and CISH. Kind of test: Expression of endogenous STAT5 target genes in breast cancer cell lines by quantitative RT-PCR. It counts as cell-based. The following applies: 1 hour pre-treatment; for expression of endogenous STAT5 target genes AREG and CISH: 1 μM, prolactin 100 ng/ml. The protocol: as §1
FIG. 2A-FIG. 2E is a series of bar graphs showing that the endogenous mineralocorticoid aldosterone inhibits STAT5 transcriptional function. FIG. 2A is a bar chart wherein T47D cells were transfected with an MCR-dependent luciferase reporter and a normalizing control, and normalized luciferase activity was determined after the indicated treatment. FIG. 2B is a bar chart wherein T47D cells transfected with an MCR-dependent luciferase reporter and a normalizing control were treated with the indicated dose of aldosterone, after which luciferase activity was determined. FIG. 2C is a bar chart wherein T47D-luc cells were pre-treated with the indicated concentration of aldosterone for 1 hour, then stimulated with prolactin (100 ng/ml) for 6 hours, after which luciferase activity was determined. […] Luciferase activity was quantified by luminometry six hours following prolactin stimulation. […]

In another test the test system is MCR. Kind of test: MCR-dependent luciferase reporter in T47D cells. It counts as cell-based. The following applies: for activation of MCR, MCR-specific luciferase reporter: T47D cells (FIG. 2A). On the procedure: FIG. 2A-FIG. 2E is a series of bar graphs showing that the endogenous mineralocorticoid aldosterone inhibits STAT5 transcriptional function. FIG. 2A is a bar chart wherein T47D cells were transfected with an MCR-dependent luciferase reporter and a normalizing control, and normalized luciferase activity was determined after the indicated treatment. FIG. 2B is a bar chart wherein T47D cells transfected with an MCR-dependent luciferase reporter and a normalizing control were treated with the indicated dose of aldosterone, after which luciferase activity was determined. FIG. 2C is a bar chart wherein T47D-luc cells were pre-treated with the indicated concentration of aldosterone for 1 hour, then stimulated with prolactin (100 ng/ml) for 6 hours, after which luciferase activity was determined. FIG. 2D is a bar chart wherein T47D cells were pre-treated with vehicle control or aldosterone (0.01 μM) for 1 hour, after which prolactin (100 ng/ml) was added to induce STAT5 activation. RNA was harvested 1.5 hours later, and expression of STAT5 target genes was measured using quantitative RT-PCR and normalized to the expression of 18s RNA. FIG. 2E is a bar chart wherein T47D cells stably expressing a STAT5-dependent luciferase reporter gene were treated with 1 μM fludrocortisone at the indicated time points relative to prolactin stimulation. Luciferase activity was quantified by luminometry six hours following prolactin stimulation. Error bars represent mean±SD for triplicates.

A further test concerns NF-κB. Kind of test: NF-κB-dependent luciferase reporter (NF-κB-luc/293 cells). Format: cell-based. The following applies: concentrations up to 33 μM. The protocol: as §1, with “FIG. 1C is a series of bar charts wherein the indicated breast cancer cell lines were pre-treated with vehicle (dimethylsulfoxide (DMSO)) or fludrocortisone (1 μM) for 1 hour, then left untreated or stimulated with prolactin (100 ng/ml) to induce STAT5 activation.” left out, “Error bars represent mean±SD for triplicates.” left out
(§2) T47D, ZR75 (American Type Culture Collection, Manassas Va.), and MDA-MB-468, were maintained in DMEM containing 10% FBS. […] STAT1, STAT3, STAT5 and NF-κB-dependent luciferase activities were measured in STAT-luc/2FTGH, STAT-luc/U3A, NCAM2-luc/T47D and NF-κB-luc/293 cells, respectively (Nelson et al., 2008 Blood 112, 5095-5102). Luciferase activity was quantified using the Bright-Glo Luciferase assay system (Promega, Madison, Wis.).

A further test concerns STAT1. Kind of test: STAT1-dependent luciferase reporter (STAT-luc/2FTGH cells). It counts as cell-based. The following applies: concentrations up to 33 μM. On the procedure: as §1, with “FIG. 1C is a series of bar charts wherein the indicated breast cancer cell lines were pre-treated with vehicle (dimethylsulfoxide (DMSO)) or fludrocortisone (1 μM) for 1 hour, then left untreated or stimulated with prolactin (100 ng/ml) to induce STAT5 activation.” left out, “Error bars represent mean±SD for triplicates.” left out
as §2

In the next test the test system is STAT3. Description: STAT3-dependent luciferase reporter (STAT-luc/U3A cells). The following applies: concentrations up to 33 μM. Format: cell-based. The protocol: as §1, with “FIG. 1C is a series of bar charts wherein the indicated breast cancer cell lines were pre-treated with vehicle (dimethylsulfoxide (DMSO)) or fludrocortisone (1 μM) for 1 hour, then left untreated or stimulated with prolactin (100 ng/ml) to induce STAT5 activation.” left out, “Error bars represent mean±SD for triplicates.” left out
as §2

Test [3] concerns STAT5. Kind of test: Dual luciferase assay, parental T47D cells transfected with NCAM-luc or B-luc. Format: cell-based. The following applies: prolactin-induced. On the procedure:
as §1, with “triplicates. […]” for “triplicates.”

For test [4], the system named is STAT5. Description: Immunoblot of STAT5 phosphorylation and nuclear localization in T47D cells after prolactin. It counts as cell-based. The following applies: for phosphorylation and nuclear localization of STAT5: 1 hour pre-treatment, 15 minutes after prolactin, cellular fractionation (FIG. 3B). The protocol: (§3) FIG. 3A-FIG. 3C is a series of photographs of blots and bar charts showing that fludrocortisone inhibits STAT5 transcriptional function without affecting its phosphorylation or genome binding. FIG. 3A is a photograph of a blot wherein T47D cells were pretreated with vehicle control or fludrocortisone for 1 hour after which prolactin was added. Cells were harvested at the indicated time point and immunoblotting was performed. FIG. 3B is a photograph of a blot wherein T47D cells were pretreated with vehicle, fludrocortisone, or Jak inhibitor 1 for 1 hour after which prolactin was added. Cells were collected 15 minutes after prolactin stimulation and cellular fractionation and immunoblotting was performed. FIG. 3C is a photograph of a blot wherein T47D cells were pretreated with vehicle (DMSO) or fludrocortisone for 1 hour, then left untreated or stimulated with prolactin. 30 minutes later, cells were harvested and ChIP was performed to analyze STAT5 and pol II binding to the CISH promoter region. Error bars represent mean±SD for two independent experiments.
Nuclear and cytoplasmic fractionation was performed using the Nuclear Extract Kit (Active Motif, Carlsbad, Calif.). Immunoblots were performed using antibodies recognizing STAT5 (sc-482), MCR (sc-11412) and RNA polymerase II (pol II) (sc-9001) (all from Santa Cruz Biotechnology, Santa Cruz Calif.) and tyrosine-phosphorylated STAT5 (9131L) (from Cell Signaling Technology, Danvers, Mass.).
Next, it was considered whether fludrocortisone was inhibiting STAT5 function by blocking a key step in its activation. To address this, the effect of fludrocortisone on the kinetics of STAT5 phosphorylation following prolactin stimulation was evaluated. […] It was then evaluated whether nuclear translocation of activated STAT5 was affected by fludrocortisone treatment. T47D cells were either untreated or pretreated with fludrocortisone or JAK inhibitor 1, then left unstimulated or treated with prolactin, after which nuclear and cytoplasmic fractions were separated and analyzed for phosphorylated STAT5. […]

Test [5] has as its system STAT5 and RNA polymerase II binding to CISH promoter. Kind of test: ChIP of STAT5 and pol II binding to the CISH promoter region in T47D cells. Format: cell-based. The following applies: 1 hour pre-treatment, 30 minutes after prolactin (FIG. 3C). On the procedure:
as §3, with “FIG. 3C is a photograph of a blot wherein T47D cells were pretreated with vehicle (DMSO) or fludrocortisone for 1 hour, then left untreated or stimulated with prolactin. 30 minutes later, cells were harvested and ChIP was performed to analyze STAT5 and pol II binding to the CISH promoter region. Error bars represent mean±SD for two independent experiments.” left out
ChIP was performed as described (Nelson et al., 2004 J Biol Chem 279, 54724-54730). […] Quantitative PCR was performed in triplicate on ChIP product or input using SYBR Green PCR Master Mix (Applied Biosystems, Foster City, Calif.) and region-specific primers as follows: CISH, forward, 5′-CCCGCGGTTCTAGGAAGAC-3′ (SEQ ID NO: 1), reverse, 5′-CGAGCTGCTGCCTAATCCT-3′ (SEQ ID NO: 2); Rhodopsin, forward, 5′-[…]-3′ (SEQ ID NO: 3), reverse, 5′-[…]-3′ (SEQ ID NO: 4). Relative binding at the CISH promoter site was normalized to input and expressed as mean fold change relative to binding at the Rhodopsin site, which is a control DNA binding site known not to bind STAT5. […]

Test [6] relates to STAT5. Description: STAT5 activity in hematopoietic cells. It counts as cell-based.
Test [7] concerns STAT5. Kind of test: STAT5 function (test not described).
[8] abbreviates: T47D reporter cells, 1 μM (FIG. 2E).

Take `C[C@]12CCC(=O)C=C1CC[C@@H]1[C@@H]2[C@@H](O)C[C@]2(C=O)[C@@H](C(=O)CO)CC[C@@H]12` [aldosterone]: in the test on STAT5 [1] (T47D-luc cells, 1 hour pre-treatment, prolactin 100 ng/ml for 6 hours (FIG. 2C)), the “inhibition of STAT5-dependent reporter gene, dose response” value was “dose-dependent inhibition”. Moreover, the “expression of endogenous STAT5 target genes” value in test [2] (T47D cells, 0.01 μM, prolactin 100 ng/ml (FIG. 2D)) is “inhibited”. The “activation of MCR, MCR-specific luciferase reporter” value in the test with MCR was “activate MCR”. Also, in the test on MCR (T47D cells, indicated doses (FIG. 2B)), the “dose dependence of MCR activation, MCR-dependent luciferase reporter” value was “activates MCR in a dose-dependent manner”.

For the molecule `C[C@]12CCC(=O)C=C1CC[C@H]1[C@@H]3CC[C@](O)(C(=O)CO)[C@@]3(C)C[C@H](O)[C@@]12F` [fludrocortisone, 9α-fluoro-11β,17α,21-trihydroxypregn-4-ene-3,20-dione], the IC50 with STAT5 [1] (Homo sapiens, T47D cells stably expressing STAT5-dependent luciferase reporter, prolactin 100 ng/ml, read-out: IC50, inhibition of STAT5-dependent luciferase activity) was roughly 100 nM. Also, in the test with STAT5 [1] (setting [8]), the “prolactin-stimulated STAT5 luciferase activity, compound added after prolactin” value is “some inhibitory effect” and the “prolactin-stimulated STAT5 luciferase activity, compound added simultaneously with prolactin” value is given as “still effectively inhibit”. The “effect on NF-κB-dependent luciferase expression” value with NF-κB is on record as “essentially no effect”. For the same molecule, in the test with STAT1, the “effect on STAT1-dependent luciferase expression” value is given as “essentially no effect”. The “effect on STAT3-dependent luciferase expression” value with STAT3 is reported as “essentially no effect”. Also, in the test on STAT5 [3], the “STAT5-dependent luciferase activity, B-luc (BCL6) promoter” value is recorded as “reduced STAT5-dependent luciferase activity” and the “STAT5-dependent luciferase activity, NCAM-luc promoter” value is given as “reduced STAT5-dependent luciferase activity”. In addition, the “expression of endogenous STAT5 target genes AREG and CISH” value in test [2] (T47D cells) is reported as “effectively inhibits”. The “expression of endogenous STAT5 target genes AREG and CISH” value in [2] (ZR75 cells) is reported as “effectively inhibits”. For the same molecule, the “activation of MCR, MCR-specific luciferase reporter” value with MCR was “activate MCR”. For the same molecule, the “dynamics of STAT5 activation (phosphorylation kinetics) following prolactin” value in the test with STAT5 [4] (1 hour pre-treatment (FIG. 3A)) is “no difference”. For the same molecule, in the test on STAT5 [4], the “phosphorylation and nuclear localization of STAT5” value is listed as “no effect”. In addition, in [5], the “STAT5 binding to CISH regulatory site (ChIP)” value is reported as “no effect” and the “prolactin-induced recruitment of RNA polymerase II (pol II) to CISH promoter site (ChIP)” value is on record as “did inhibit”. In addition, the “induced or constitutive STAT5 activity” value in the test with STAT5 [6] is reported as “does not appear to inhibit”.

Take `CC(=O)S[C@@H]1CC2=CC(=O)CC[C@]2(C)[C@H]2CC[C@@]3(C)[C@@H](CC[C@@]34CCC(=O)O4)[C@H]12` [spironolactone]: the STAT5 function entry in the test on STAT5 [7] is “inhibit STAT5 function”.

In the case of `CC(C)(C)c1nc2c3cc[nH]c(=O)c3c3cc(F)ccc3c2[nH]1` [JAK inhibitor 1], the “phosphorylation and nuclear localization of STAT5” value in the test on STAT5 [4] is “complete inhibition”.

The values are drawn from US20210393651A1, “TARGETING THE ONCOGENIC TRANSCRIPTION FACTOR STAT5 WITH MINERALOCORTICOID ANALOGUES” (DANA-FARBER CANCER INSTITUTE, INC., priority 2018, published 2021).
